Assay results taken from the METLIN SMRT retention time set (Domingo-Almenara et al. 2019).

Test: gradient 5% acetonitrile 3 min, to 50% in 2 min, to 85% in 15 min, held 3 min, 100 µL/min
Conditions: column: Zorbax Extend-C18 2.1 x 50 mm; eluents: water / acetonitrile, 0.1% formic acid
Outline: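 Over 3 months, pure standards in mixtures of ~100 molecules were run by HPLC coupled to a quadrupole time-of-flight mass spectrometer in positive and negative ionization mode. The column was a Zorbax Extend-C18 (2.1 × 50 mm, 1.8 μm) at 100 μL/min, eluted with water and acetonitrile each holding 0.1% formic acid, with 40 μL dead and 900 μL dwell volumes. Retention time was determined from adduct peaks chosen by software and checked manually.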

| SMILES | RP-LC retention time [s] |
| --- | --- |
| CNC(=O)C1CCN(C2=NS(=O)(=O)C(c3ccc(C(C)C)cc3)=C2C)CC1 | 777 |
| COc1ccc(OCc2noc(CNC(=O)c3cccnc3)n2)cc1 | 749 |
| Cn1c(=O)n(C)c2cc(S(=O)(=O)c3ccc(F)cc3)c(NC(=O)Cc3cccc(F)c3)cc21 | 873 |
| O=C(Cn1nc2c3cc(-c4ccc(F)cc4)nn3ccn2c1=O)Nc1ccccc1Br | 945 |
| CCN1C(=O)C(C)(C(=O)NCc2ccc(F)c(Cl)c2)Oc2cccnc21 (stereo unspecified) | 902 |
| O=C(Cn1c(=O)oc2ccc(Cl)cc21)NC1CCCCC1 | 878 |
| Cc1cccc(Cn2nc(-c3nc(C(C)(C)C)no3)ccc2=O)c1 | 1110 |
| Cn1cccc1C(=O)N1CCCC1c1nc(-c2ccccc2)n[nH]1 (stereo unspecified) | 716 |
| CC(=O)N1CCOc2cc(S(=O)(=O)N3CCCCCC3c3cccc(F)c3)ccc21 (stereo unspecified) | 999 |
| Cc1[nH]nc(-c2c(C)sc(C)c2S(=O)(=O)NC2CCCc3ccccc32)c1C (stereo unspecified) | 1130 |
| CCn1nccc1C(=O)N1CCN(c2cc(-c3ccccc3)[nH]n2)CC1 | 694 |
| CCOC(=O)c1noc2ncnc(N3CCc4cc(OC)c(OC)cc4C3C)c12 (stereo unspecified) | 1000 |
| O=C(NCCCN1CCCCC1)c1ccc2c(c1)nc1n2CCN(C2CCCCC2)C1=O | 621 |
| CC1(C)CC(=O)c2cn(-c3ccccc3)c(=O)c(C(=O)Nc3ccc4c(c3)OCCO4)c2C1 | 976 |
| CCNc1cc(N2CCCC(CCC(=O)N3CCOCC3)C2)ncn1 (stereo unspecified) | 586 |
| Cc1cc(NC(=O)Cn2nc(C(=O)N3CCOCC3)c3ccccc32)ccc1Br | 862 |
| O=C(Nc1nccs1)C1CCN(C(=O)c2cccc(-n3cnnn3)c2)CC1 | 625 |
| CCOC(=O)c1noc2nc(C)nc(NCC3CCN(CCc4ccc(F)cc4)CC3)c12 | 741 |

| SMILES | RP-LC retention time [s] |
| --- | --- |
| COc1cc2c(cc1Cc1cccc(Cl)c1F)c(=O)c(C(=O)O)cn2[C@H](CO)C(C)C | 1090 |
| Cc1nc(C(C)C)nc2c1CCC(=O)N2Cc1cccnc1 | 519 |
| CCc1ccc(CN2C(=O)CN(S(C)(=O)=O)CC2(C)C(=O)NCc2ccc(C)cc2)cc1 (stereo unspecified) | 963 |
| Cc1cc(C(=O)NCCCC(=O)Nc2cccc3cccnc23)c(C)o1 | 728 |
| COc1cccc(C(=O)N2CCN(c3nc4ccccc4n(C)c3=O)CC2)c1 | 877 |
| O=C(NCc1cccs1)c1cnn2c(-c3ccc(Cl)cc3)ccnc12 | 983 |
| CCOc1ccc(CC(=O)N2c3ccccc3CC2c2nc(C3CC3)no2)cc1OCC (stereo unspecified) | 1070 |
| CC(C)CCNC(=O)C1CCCN(c2ccnc(-c3ccc(F)cc3)n2)C1 (stereo unspecified) | 690 |
| N#Cc1ccc(S(=O)(=O)N2CC(c3nc(CCOCc4ccccc4)no3)C2)cc1 | 980 |
| O=C(c1ccc2c(c1)OCO2)N1CCCC1c1nc(-c2cccc(C(F)(F)F)c2)no1 (stereo unspecified) | 1080 |
| NC(=O)C1CCN(C(=O)c2cn(-c3cccc(F)c3)nn2)CC1 | 608 |
| Cn1c(=O)oc2cc(-c3noc(CCc4ccccc4)n3)ccc21 | 1030 |
| CN1C(=O)COc2cc(-c3noc(C(=O)N4CCCCC4)n3)ccc21 | 841 |
| Cc1ccc(C(=O)NC2(c3nc(-c4ccccc4)no3)CCCCC2)cc1C | 1250 |
| Cc1ccc(-n2nc(C(=O)N3CCN(c4ccccn4)CC3)c3c4ccccc4n(C)c3c2=O)cc1 | 705 |
| Cc1ccc2nsnc2c1S(=O)(=O)NCCc1c(C)[nH]c2ccccc12 | 948 |
| CCCC(=O)Nc1cc(-c2nc3ccc(C)cc3[nH]2)ccc1C | 650 |
| Cc1scc2nc(C(=O)Nc3ccccc3)nc(N(C)C)c12 | 658 |
